In patent publication EP1718623B1, “COMPOUNDS AS INHIBITORS OF CELL PROLIFERATION AND VIRAL INFECTIONS” (4SC AG, priority 2004, dated 2005):
Each block holds one compound with its values, some of them ahead of it.

Legend:
[1] = tested on: peripheral blood monocyte (PBMC); test: T Lymphocyte Proliferation Assay (PHA-stimulated PBMC, BrdU incorporation ELISA); format: cell-based; conditions: Homo sapiens, PBMCs stimulated with 2 µg/ml phytohemoagglutinin, 72 h
Description: We used a nonradioactive technique for the measurement of in vitro T-cell proliferation (Messele T et al. Clinical and Diagnostic Laboratory Immunology,687-692,2002).
Peripheral blood mononuclear cells (PBMCs) were isolated from human blood obtained from volunteer donators. PBMCs were isolated by centrifugation in ACCUSPIN tubes using HISTOPAQUE.
PBMCs were stimulated with PHA and cell proliferation was measured with a Roche colorimetric BromUridin incorporation ELISA kit.
Inhibition of stimulated peripheral blood monocyte (PBMC) stimulation
PBMCs were isolated from the blood of healthy volunteers with the help of ACCUSPIN™ System Histopaque®-1077 tubes, washed and resuspended with 10^6 cells/ml in Dulbecco's modified eagles medium, containing 10 % fetal calf serum and 2 mM Glutamine.
The cells were stimulated with 2 µg/ml phytohemoagglutinin in the presence of test compound or blank vehicle for 72 h. 4 h prior to the end of the incubation period, 5-bromo-2'-desoxyuridine (BrdU) was added to label the proliferating cells. After the incubation, the cells were separated by centrifugation and the culture supernatant removed. Incorporated BrdU was quantified with the help of an enzyme-linked immunosorbent assay.
For the determination of the IC50 values (concentration of inhibitor required for 50% inhibition) at least four different inhibitor concentrations were applied. […]

Kv1.3 channels = biological target: T1, Kv1.3 channels (Mus musculus, UniProt P16390); test: Kv1.3 assay, whole-cell patch-clamp in stable transfected L929 cells; format: cell-based; conditions: c=20 µM; each compound tested on two different cells; steady-state current
T1 construct: expressed in transfected cells; host or cells: L929 cells
T1 sequence (P16390 whole entry): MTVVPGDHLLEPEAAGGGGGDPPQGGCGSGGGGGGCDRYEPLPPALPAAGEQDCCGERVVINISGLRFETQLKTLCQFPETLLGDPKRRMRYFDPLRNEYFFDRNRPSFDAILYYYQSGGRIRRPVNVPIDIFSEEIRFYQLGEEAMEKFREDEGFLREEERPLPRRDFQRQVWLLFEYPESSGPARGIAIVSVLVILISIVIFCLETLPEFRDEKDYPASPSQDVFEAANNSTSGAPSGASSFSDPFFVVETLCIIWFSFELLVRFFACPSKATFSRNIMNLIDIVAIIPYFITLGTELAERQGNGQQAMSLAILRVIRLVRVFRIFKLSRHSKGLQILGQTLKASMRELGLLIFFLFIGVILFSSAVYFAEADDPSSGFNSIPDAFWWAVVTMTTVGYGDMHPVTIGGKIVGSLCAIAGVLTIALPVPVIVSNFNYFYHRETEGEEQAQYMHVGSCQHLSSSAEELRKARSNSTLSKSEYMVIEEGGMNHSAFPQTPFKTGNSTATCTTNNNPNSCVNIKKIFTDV
Description: The inhibition of Kv1.3 was measured in stable transfected cell lines expressing mouse Kv1.3 using the patch-clamp technique (Rauer H et al. J Biol Chem Vol.275, No. 2, 1201-1208, 2000), Rauer H Mol Pharmacol,50, 1625-1634, 1996, Rauer H et al. J Pharmacol, 127, 1065-1074, 1999).
Stable transfected L929 cells with Kv1.3 channels were grown in DMEM (Glutamax-I) media with 10% FCS, geneticin 330 µg/ml under 10% CO2 atmosphere.
Whole-cell patch-clamp configuration, with an external bath solution of 160 mM NaCl, 4,5 mM KCl, 1 mM MgCl, 2 mM CaCl2,5 mM HEPES, 10 mM EGTA and NaOH adjusted to pH 7. 4. Internal pipette solution for recording was 155 mM KF, 2 mM MgCl2 , 10 mM HEPES, 10 mM EGTA with KOH adjusted to pH 7.2. Currents were activated by a 200-ms voltage step from a holding potential of -80 to 40 mV every 30 s. Holding potential -80 mV.
Each compound was tested on two different cells. The cell was perfused with external bath solution (black line), then the compound was applied (c=20 µM). The resulting stedy-state current traces are shown as red lines. Example 3, 5, 6, 7, 8 are blockers.

20S proteasome = biological target: T2, 20S proteasome (Homo sapiens, UniProt P28074); test: Proteasome assay (chymotryptic activity, Suc-LLVT-AMC substrate); format: biochemical; conditions: 30°C, 20 min
T2 construct: purchased Immatics, Tübingen
Source text: Regulation of the immune response is controlled by a variety of signalling pathways such as T-cell or TNF receptor signalling (Chen G et al. Scienc,296 1634-1640,2002). To further characterize targets of compounds which we found active in the T-cell proliferation assay, we tested the compounds on a variety of targets involved in such pathways. Compounds described here are inhibitors of T-lymphocyte proliferation were active on three molecular targets: Kv1.3 ion channels and Inosine Monophosphate Dehydrogenase (IMPDH) and the human proteasome. The compounds described may act on one of these targets specifically or on several targets simultaneously.
The chymotryptic activity of the 20S proteasome (Immatics, Tübingen) was determined using a Tecan Ultra plate reader and Suc-LLVT-AMC as substrate (Bachem). […]

T-lymphocyte = conditions: inhibits T-lymphocyte proliferation; Kath JC et al. 1997; cited from earlier work
Kv1.3 = Kv1.3 (Homo sapiens, UniProt P22001); conditions: blocks Kv1.3 currents; Kath JC et al. 1997; cited from earlier work
Chain of Kv1.3 (P22001 whole entry): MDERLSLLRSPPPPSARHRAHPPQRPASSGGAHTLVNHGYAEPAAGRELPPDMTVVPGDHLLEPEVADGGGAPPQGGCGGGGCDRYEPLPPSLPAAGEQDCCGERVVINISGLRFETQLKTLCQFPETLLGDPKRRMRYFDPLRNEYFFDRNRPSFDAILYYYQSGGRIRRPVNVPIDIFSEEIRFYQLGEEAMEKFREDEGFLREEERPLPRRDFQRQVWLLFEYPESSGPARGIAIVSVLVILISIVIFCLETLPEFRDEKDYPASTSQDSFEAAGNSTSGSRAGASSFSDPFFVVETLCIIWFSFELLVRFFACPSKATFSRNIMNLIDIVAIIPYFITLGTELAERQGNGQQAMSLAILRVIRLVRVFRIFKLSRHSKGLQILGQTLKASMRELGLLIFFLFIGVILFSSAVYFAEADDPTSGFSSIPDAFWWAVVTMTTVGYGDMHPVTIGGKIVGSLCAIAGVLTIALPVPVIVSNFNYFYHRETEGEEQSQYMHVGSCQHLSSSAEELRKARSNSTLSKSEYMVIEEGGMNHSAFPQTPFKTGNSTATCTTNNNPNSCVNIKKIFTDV

Compound: O=C(Nc1ccc(S(=O)(=O)NCc2cc(F)c(F)c(F)c2)cc1)Nc1cccc(C2=N[C@@H](Cc3ccccc3)CO2)c1 [Example 22, 4-{3-[3-(4-(S)-Benzyl-4,5-dihydro-oxazol-2-yl)-phenyl]-ureido}-N-(3,4,5-trifluorobenzyl)-benzenesulfonamide]
IC50 [1]: < 5000 nM

Compound: O=C(Nc1ccc(C2=N[C@H](Cc3ccccc3)CO2)cc1)Nc1ccc(S(=O)(=O)NCc2cc(F)c(F)c(F)c2)cc1 [Example 3, 4-{3-[4-(4-(R)-Benzyl-4,5-dihydro-oxazol-2-yl)-phenyl]- -ureido}-N-(3,4,5-trifluorobenzyl)-benzenesulfonamide]
Kv1.3 block (Kv1.3 channels): blockers

IC50 (20S proteasome): < 5000 nM
Compound: O=C(Nc1ccc(C2=N[C@H](c3ccccc3)CO2)cc1)Nc1ccc(S(=O)(=O)NCc2cc(F)c(F)c(F)c2)cc1 [Example 1, 4-{3-[4-(4-(R)-Phenyl-4,5-dihydro-oxazol-2-yl)-phenyl]-ureido}-N-(3,4,5-trifluorobenzyl)-benzenesulfonamide]
IC50 [1]: < 5000 nM

Compound: noxiustoxin (TIINVKCTSPKQCSKPCKELYGSSAGAKCMNGKCKCYNN; UniProt P08815 1-39, looked up)
IC50 (T-lymphocyte): 8 nM
IC50 (Kv1.3): 0.2 nM
